US7638532B2, “3-aryloxy-8-aza-bicyclo[3.2.1]oct-6-ene derivatives and their use as monoamine neurotransmitter re-uptake inhibitors” (NeuroSearch A/S, priority 2005, dated 2009)
Counter-ions that a name gives are not always drawn. Like-named read-outs stand apart in the source and are kept apart here.

Columns and labels:
[1] = molecular target: T1, reuptake of dopamine (DA) in synaptosomes (Rattus norvegicus, UniProt P23977); assay: Inhibition of dopamine (DA) reuptake in synaptosomes; type: biochemical
T1 construct: in synaptosomes as described in WO 97/16451; from tissue

[2] = molecular target: T2, reuptake of noradrenaline (NA) in synaptosomes (Rattus norvegicus, UniProt Q9WTR4); assay: Inhibition of noradrenaline (NA) reuptake in synaptosomes; type: biochemical
T2 construct: in synaptosomes as described in WO 97/16451; from tissue

[3] = molecular target: T3, reuptake of serotonine (5-HT) in synaptosomes (Rattus norvegicus, UniProt P31652); assay: Inhibition of serotonine (5-HT) reuptake in synaptosomes; type: biochemical
T3 construct: in synaptosomes as described in WO 97/16451; from tissue
T3 sequence (P31652 whole entry): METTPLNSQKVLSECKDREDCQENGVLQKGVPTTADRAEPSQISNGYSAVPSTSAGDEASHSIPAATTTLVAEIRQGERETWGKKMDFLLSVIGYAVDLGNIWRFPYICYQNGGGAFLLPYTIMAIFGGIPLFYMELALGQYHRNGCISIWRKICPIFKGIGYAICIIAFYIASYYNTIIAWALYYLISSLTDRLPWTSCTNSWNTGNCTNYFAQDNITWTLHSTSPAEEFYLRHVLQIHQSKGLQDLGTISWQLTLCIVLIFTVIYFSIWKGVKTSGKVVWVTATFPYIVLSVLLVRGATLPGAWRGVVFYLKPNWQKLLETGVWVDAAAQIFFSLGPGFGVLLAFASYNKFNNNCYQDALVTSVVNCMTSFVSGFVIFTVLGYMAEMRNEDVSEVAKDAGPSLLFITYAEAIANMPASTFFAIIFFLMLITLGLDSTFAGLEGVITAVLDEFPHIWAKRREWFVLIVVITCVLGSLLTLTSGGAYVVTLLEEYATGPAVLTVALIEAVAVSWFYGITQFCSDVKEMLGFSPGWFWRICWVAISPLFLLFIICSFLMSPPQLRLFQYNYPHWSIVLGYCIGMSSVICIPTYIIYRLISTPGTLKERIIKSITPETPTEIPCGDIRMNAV

T1 sequence (P23977 whole entry): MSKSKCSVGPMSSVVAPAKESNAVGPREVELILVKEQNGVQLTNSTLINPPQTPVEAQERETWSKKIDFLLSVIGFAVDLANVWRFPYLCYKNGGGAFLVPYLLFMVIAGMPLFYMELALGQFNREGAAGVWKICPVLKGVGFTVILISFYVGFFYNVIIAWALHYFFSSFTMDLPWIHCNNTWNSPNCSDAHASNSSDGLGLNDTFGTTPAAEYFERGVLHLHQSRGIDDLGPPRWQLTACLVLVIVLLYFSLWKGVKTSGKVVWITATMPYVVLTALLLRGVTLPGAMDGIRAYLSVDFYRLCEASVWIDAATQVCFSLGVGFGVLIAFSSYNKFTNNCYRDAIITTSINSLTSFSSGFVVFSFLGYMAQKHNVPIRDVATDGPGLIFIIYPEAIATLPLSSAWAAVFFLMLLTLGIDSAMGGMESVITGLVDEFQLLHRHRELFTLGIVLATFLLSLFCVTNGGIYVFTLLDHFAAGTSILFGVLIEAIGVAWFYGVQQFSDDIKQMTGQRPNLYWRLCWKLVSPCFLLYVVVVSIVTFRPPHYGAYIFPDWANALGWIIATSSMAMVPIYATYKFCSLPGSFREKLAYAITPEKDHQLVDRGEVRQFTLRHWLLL
T2 sequence (Q9WTR4 1-597): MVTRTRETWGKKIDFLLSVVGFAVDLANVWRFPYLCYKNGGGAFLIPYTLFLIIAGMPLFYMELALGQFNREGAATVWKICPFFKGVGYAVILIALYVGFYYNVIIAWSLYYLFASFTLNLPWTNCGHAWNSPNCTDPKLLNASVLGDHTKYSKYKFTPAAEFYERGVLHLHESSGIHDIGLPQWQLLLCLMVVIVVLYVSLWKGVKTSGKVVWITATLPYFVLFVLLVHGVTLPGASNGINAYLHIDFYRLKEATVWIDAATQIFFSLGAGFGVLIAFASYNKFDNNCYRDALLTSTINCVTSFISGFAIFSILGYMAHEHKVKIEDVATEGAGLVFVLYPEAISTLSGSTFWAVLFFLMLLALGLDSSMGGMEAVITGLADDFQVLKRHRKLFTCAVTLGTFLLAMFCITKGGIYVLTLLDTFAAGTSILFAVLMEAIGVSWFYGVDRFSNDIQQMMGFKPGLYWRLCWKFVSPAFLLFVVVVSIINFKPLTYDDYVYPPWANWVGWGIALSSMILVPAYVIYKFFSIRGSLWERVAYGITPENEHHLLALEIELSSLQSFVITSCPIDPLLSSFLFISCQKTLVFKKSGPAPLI

SMILES	melting point	IC50 [1]	IC50 [2]	IC50 [3]	other results
Clc1ccc(O[C@@H]2C[C@H]3C=C[C@@H](C2)N3)cc1Cl (as salt: hydrochloric acid salt) [1st compound of method A, exo-3-(3,4-Dichloro-phenoxy)-8-aza-bicyclo[3.2.1]oct-6-ene hydrochloric acid salt]	200 °C (dec.)	–	–	–	–
COc1ccc2cc(O[C@@H]3C[C@H]4C=C[C@@H](C3)N4C)ccc2c1 [3rd compound of method B, exo-3-(6-Methoxy-naphthalen-2-yloxy)-8-methyl-8-aza-bicyclo[3.2.1]oct-6-ene free base]	240 °C (dec.)	–	–	–	IC50 ([1]; 3H-DA, synaptosomes, read-out: DA-uptake IC50): 110 nM; IC50 ([2]; 3H-NA, synaptosomes, read-out: NA-uptake IC50): 170 nM; IC50 ([3]; 3H-5-HT, synaptosomes, read-out: 5-HT-uptake IC50): 480 nM
Clc1ccc(O[C@@H]2C[C@H]3C=C[C@@H](C2)N3)cc1Cl [1st compound of method A, exo-3-(3,4-Dichloro-phenoxy)-8-aza-bicyclo[3.2.1]oct-6-ene hydrochloric acid salt]	–	220 nM	27 nM	2.5 nM	–
Clc1ccc(O[C@@H]2C[C@H]3C=C[C@@H](C2)N3)cc1Br (as salt: hydrochloric acid salt) [2nd compound of method A, exo-3-(3-Bromo-4-chloro-phenoxy)-8-aza-bicyclo[3.2.1]oct-6-ene hydrochloric acid salt]	240 to 243 °C	–	–	–	–
Clc1ccc(O[C@@H]2C[C@H]3C=C[C@@H](C2)N3)cc1Br [2nd compound of method A, exo-3-(3-Bromo-4-chloro-phenoxy)-8-aza-bicyclo[3.2.1]oct-6-ene hydrochloric acid salt]	–	170 nM	110 nM	21 nM	–
